For 1 molecule, IC50 and melting point results are on record in patent publication US6812228B2, “Benzoxazines for use in the treatment of parkinson's disease” (Warner-Lambert Company, priority 2000, dated 2004).

In data set [1] the target is T1, human muscarinic receptor subtype M2 (Homo sapiens, UniProt P08172).
T1 sequence (P08172 1-466): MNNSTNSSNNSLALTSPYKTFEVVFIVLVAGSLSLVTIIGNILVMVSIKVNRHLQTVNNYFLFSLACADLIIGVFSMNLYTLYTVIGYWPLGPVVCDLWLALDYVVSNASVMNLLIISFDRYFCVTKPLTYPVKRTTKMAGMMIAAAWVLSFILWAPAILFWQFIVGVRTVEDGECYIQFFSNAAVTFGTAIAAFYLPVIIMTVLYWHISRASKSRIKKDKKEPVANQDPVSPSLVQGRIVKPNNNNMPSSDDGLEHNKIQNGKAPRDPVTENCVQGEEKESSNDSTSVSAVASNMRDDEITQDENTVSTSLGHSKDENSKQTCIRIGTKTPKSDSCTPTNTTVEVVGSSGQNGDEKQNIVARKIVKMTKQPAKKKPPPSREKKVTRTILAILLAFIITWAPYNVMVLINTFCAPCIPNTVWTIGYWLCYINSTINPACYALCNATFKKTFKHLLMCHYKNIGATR
In words: Muscarinic receptor binding, displacement of [3H]-NMS, membranes from transfected CHO cells. The note with it: [3H]-NMS displacement, CHO cell membranes; tested two to four times, SEM <=10%; read-out: Muscarinic Binding Activity M2 (IC50). The method, then: (§1) The compounds were evaluated in standard assays used to measure muscarinic receptor binding, and they were compared with other benzoxazines described in Bioorganic & Medicinal Chemistry Letters 8, 1998:1991-1996, which is incorporated herein by reference. Specifically, the compounds were evaluated for their binding affinity toward five human muscarinic receptor subtypes (M1-M5) by the method of Dorje et al., J. Pharm. Exp. Ther. 1991;256:727-733, which is incorporated herein by reference. The binding was determined by measuring the displacement of [^3H]-NMS (N-methylscopolamine) binding using membranes from transfected Chinese hamster ovary (CHO) cells.

Data set [2] deals with human muscarinic receptor subtype M3 (Homo sapiens, UniProt P20309). The description is as above. The note with it: [3H]-NMS displacement, CHO cell membranes; tested two to four times, SEM <=10%; read-out: Muscarinic Binding Activity M3 (IC50). On the procedure: as §1
In data set [3] the target is T2, human muscarinic receptor subtype M5 (Homo sapiens, UniProt P08912).
T2 sequence (P08912 1-532): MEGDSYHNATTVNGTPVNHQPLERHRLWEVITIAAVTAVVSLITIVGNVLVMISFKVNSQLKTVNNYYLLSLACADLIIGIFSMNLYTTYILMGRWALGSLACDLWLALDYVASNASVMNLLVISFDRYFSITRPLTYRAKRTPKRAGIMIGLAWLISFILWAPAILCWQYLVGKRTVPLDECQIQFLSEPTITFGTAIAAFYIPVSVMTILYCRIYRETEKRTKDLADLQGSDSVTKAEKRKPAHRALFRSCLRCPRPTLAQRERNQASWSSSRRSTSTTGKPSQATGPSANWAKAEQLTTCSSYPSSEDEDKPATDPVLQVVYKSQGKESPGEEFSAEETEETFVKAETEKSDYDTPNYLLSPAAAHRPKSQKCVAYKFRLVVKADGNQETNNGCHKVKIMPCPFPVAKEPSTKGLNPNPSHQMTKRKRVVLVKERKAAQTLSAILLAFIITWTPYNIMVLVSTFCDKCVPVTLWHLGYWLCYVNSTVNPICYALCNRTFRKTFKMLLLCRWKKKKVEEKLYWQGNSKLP
The description is as above. The note with it: [3H]-NMS displacement, CHO cell membranes; tested two to four times, SEM <=10%; read-out: Muscarinic Binding Activity M5 (IC50). The method, then:
as §1

Data set [4] deals with T3, human muscarinic receptor subtype M1 (Homo sapiens, UniProt P11229).
T3 sequence (P11229 1-460): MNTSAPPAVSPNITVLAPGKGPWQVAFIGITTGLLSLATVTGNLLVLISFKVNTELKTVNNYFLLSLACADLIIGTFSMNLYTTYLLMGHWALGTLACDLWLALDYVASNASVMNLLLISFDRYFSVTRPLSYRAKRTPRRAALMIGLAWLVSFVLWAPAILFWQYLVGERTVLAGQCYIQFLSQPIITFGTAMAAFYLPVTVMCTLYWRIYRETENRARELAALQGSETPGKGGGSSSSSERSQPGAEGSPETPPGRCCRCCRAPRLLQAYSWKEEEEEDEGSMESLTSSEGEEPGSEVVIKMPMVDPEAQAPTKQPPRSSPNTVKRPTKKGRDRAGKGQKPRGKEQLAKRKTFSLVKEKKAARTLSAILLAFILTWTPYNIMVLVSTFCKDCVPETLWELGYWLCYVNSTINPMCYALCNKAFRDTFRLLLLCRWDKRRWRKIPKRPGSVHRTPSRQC
The description is as above. The note with it: [3H]-NMS displacement, CHO cell membranes; tested two to four times, SEM <=10%; read-out: Muscarinic Binding Activity M1 (IC50). On the procedure:
as §1

Data set [5] has as its target T4, human muscarinic receptor subtype M4 (Homo sapiens, UniProt P08173).
T4 sequence (P08173 1-479): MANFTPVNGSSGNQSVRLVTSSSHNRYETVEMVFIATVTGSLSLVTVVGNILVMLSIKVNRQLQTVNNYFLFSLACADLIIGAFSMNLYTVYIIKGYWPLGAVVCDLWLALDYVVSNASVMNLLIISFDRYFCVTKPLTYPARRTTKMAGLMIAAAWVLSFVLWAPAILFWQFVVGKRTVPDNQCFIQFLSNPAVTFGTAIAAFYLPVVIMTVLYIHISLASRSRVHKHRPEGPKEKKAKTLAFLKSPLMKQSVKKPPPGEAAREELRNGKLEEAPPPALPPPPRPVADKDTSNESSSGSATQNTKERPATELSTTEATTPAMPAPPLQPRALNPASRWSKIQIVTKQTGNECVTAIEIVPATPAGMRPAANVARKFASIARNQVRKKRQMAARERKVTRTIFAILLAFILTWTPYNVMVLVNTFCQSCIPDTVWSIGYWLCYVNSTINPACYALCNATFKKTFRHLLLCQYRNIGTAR
The description is as above. The note with it: [3H]-NMS displacement, CHO cell membranes; tested two to four times, SEM <=10%; read-out: Muscarinic Binding Activity M4 (IC50). On the procedure:
as §1

In general, IC50 refers to the point on the concentration scale where inhibition reaches its midpoint. In general, melting point refers to the temperature of the solid-liquid transition.

Chain of human muscarinic receptor subtype M3 (P20309 whole entry): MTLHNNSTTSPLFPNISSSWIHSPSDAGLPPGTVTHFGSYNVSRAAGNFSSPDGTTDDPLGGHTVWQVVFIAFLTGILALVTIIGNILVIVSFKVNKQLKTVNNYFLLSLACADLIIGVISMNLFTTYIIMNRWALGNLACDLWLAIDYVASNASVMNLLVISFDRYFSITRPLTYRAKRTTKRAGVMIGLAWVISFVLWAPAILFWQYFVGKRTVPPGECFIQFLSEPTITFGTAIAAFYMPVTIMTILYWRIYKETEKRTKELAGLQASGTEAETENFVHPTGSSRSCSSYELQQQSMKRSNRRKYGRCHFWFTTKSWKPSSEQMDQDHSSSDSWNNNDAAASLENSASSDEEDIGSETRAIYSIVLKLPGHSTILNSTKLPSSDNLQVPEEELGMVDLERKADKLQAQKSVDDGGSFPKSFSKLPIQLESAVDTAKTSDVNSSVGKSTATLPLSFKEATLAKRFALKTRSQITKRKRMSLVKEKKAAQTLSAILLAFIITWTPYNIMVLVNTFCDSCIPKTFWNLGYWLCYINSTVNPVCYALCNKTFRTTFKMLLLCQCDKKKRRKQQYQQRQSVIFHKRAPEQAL

In the case of `CCCCCCc1[nH]c2ccc3c(c2c1C(=O)OCC)CN1CCc2cc(OC)ccc2C1O3` (stereo not drawn) [Example 8, 2-Hexyl-9-methoxy-11,12-dihydro-3H,6aH,13H-6-oxa-3,12a-diaza-benzo[a]cyclopent[h]anthracene-1-carboxylic acid ethyl ester], the melting point fell in the range of 157 to 160 °C. In data set [1], the IC50 is 800 nM. The half-maximal inhibitory concentration (IC50) in data set [2] is 400 nM. Moreover, the IC50 in data set [3] is 3000 nM. Moreover, the half-inhibitory concentration (IC50) in data set [4] worked out at 2000 nM. Moreover, the concentration for half-maximal inhibition (IC50) in data set [5] amounted to 30 nM.
